Results as given in article PMC10224329, “Design, Synthesis, and Antiproliferative Activity of Benzopyran-4-One-Isoxazole Hybrid Compounds” (Molecules, 2023).
Entries after “also recorded” stand apart in the source; their conditions may differ.

Tests used:
[1] = test system: ABL1, c-Kit, c-Src, CDK2/cyclin A1, CSK, EGFR, mTOR/FRAP1, p38a/MAPK14, PKCa, and PI3K; test: Protein kinase panel screen, overall; format: biochemical; details: single dose of 20 μM, all kinases screened
Method: (§1) Therefore, selected compound 5a was screened against several protein kinases to explore the potential of these hybrid compounds as kinase inhibitors. The screening of compound 5a was performed on a panel of 9 kinases, viz., ABL1, c-Kit, c-Src, CDK2/cyclin A1, CSK, EGFR, mTOR/FRAP1, p38a/MAPK14, PKCa, and PI3K, at a dose of 20 μM. The respective positive controls were used for each kinase, and the kinase reaction was performed at 200 μM ATP concentration for all the kinases except for PI3K, which was performed at 10 µM ATP (Table 2). […] It appeared that compound 5a containing a 3-position substitution with an isoxazole ring and a 4-position with a carbonyl group has a detrimental effect on kinase inhibition. Previously 3-substituted benzopyran compound with a short alkyl chain of urea (NH-CO-NH-Et/Me/iPr) was reported with Abl kinase inhibitory activity in the range of 4–27 μM [36]. […] Due to prominent antiproliferative activity, these compounds may have some other targets for anticancer activity.
Compound 5a was tested at a single dose of 20 μM against 9 kinases, viz., Abl1, c-Kit, c-Src, CDK2/cyclin A1, CSK, EGFR, mTOR/FRAP1, p38a/MAPK14, PKCa, and PI3K using our previously reported protocol in duplicate by Reaction Biology Corporation. […]

EGFR = target: T1, EGFR (Homo sapiens, UniProt P00533); test: Protein kinase assay (Reaction Biology); format: biochemical; details: duplicate, 200 μM ATP, read-out: % Enzyme Activity (Relative to DMSO Controls) EGFR
T1 construct: purchased Reaction Biology Corporation
T1 sequence (P00533 25-1210): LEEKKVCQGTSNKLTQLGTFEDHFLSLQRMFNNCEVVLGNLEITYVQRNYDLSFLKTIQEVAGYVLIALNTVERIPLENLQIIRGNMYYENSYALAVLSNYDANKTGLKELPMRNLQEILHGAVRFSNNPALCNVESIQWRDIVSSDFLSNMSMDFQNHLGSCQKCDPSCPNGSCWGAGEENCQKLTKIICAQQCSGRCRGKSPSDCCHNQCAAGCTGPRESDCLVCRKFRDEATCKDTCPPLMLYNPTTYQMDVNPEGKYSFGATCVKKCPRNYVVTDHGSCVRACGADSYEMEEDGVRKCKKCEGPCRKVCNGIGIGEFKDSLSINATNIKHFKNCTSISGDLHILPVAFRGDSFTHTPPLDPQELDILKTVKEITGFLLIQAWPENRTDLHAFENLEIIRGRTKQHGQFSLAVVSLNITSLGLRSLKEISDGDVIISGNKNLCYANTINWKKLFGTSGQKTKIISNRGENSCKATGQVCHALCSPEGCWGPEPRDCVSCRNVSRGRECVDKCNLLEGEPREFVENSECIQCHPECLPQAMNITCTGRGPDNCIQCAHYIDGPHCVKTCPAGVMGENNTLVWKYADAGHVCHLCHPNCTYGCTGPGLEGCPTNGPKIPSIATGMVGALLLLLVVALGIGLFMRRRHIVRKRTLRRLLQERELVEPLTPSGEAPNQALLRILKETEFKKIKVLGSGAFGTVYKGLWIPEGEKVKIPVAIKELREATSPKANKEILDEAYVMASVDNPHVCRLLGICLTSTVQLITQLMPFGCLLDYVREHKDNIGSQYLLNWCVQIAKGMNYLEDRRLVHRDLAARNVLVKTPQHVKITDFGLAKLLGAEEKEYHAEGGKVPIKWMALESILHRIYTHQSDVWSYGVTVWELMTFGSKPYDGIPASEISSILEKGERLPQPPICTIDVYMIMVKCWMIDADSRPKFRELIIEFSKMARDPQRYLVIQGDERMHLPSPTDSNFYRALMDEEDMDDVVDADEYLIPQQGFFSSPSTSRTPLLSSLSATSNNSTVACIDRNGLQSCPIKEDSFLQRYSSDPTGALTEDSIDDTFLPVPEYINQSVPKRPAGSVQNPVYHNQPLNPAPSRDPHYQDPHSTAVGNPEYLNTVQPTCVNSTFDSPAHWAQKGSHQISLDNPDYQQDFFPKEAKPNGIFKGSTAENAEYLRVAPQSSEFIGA
Method: as §1
(§2) Compound 5a was tested at a single dose of 20 μM against 9 kinases, viz., Abl1, c-Kit, c-Src, CDK2/cyclin A1, CSK, EGFR, mTOR/FRAP1, p38a/MAPK14, PKCa, and PI3K using our previously reported protocol in duplicate by Reaction Biology Corporation. The respective positive controls, e.g., staurosporine for all the kinases, except SB202190 for P38a/MAP14 and P1-103 for mTOR/FRAP1, were used, and the kinase reaction was performed at 200 μM ATP concentration for all the kinases except for PI3K, which was performed at 10 µM ATP.

p38a/MAPK14 = target: T2, p38a/MAPK14 (Homo sapiens, UniProt Q16539); test: Protein kinase assay (Reaction Biology); format: biochemical; details: duplicate, 200 μM ATP, read-out: % Enzyme Activity (Relative to DMSO Controls) p38a/MAPK14
T2 construct: purchased Reaction Biology Corporation
T2 sequence (Q16539 whole entry): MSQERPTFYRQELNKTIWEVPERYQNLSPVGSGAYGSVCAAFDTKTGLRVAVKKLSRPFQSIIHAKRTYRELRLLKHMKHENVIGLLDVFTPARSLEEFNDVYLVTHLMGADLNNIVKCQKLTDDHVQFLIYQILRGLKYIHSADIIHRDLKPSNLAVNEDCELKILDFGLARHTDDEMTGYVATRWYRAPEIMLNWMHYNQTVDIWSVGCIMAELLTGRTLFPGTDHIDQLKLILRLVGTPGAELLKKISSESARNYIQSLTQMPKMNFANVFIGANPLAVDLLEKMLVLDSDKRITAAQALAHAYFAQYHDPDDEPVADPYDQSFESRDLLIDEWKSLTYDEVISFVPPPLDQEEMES
Method: as §1, §2

[2] = test system: panel of cancer cell lines (CCRF-CEM, SKOV-3, MDA-MB-231, PC-3, DU-145, iSLK); test: MTS cell viability assay, summary over the cancer cell line panel; format: cell-based; details: Homo sapiens
Method: All the 14 hybrid compounds synthesized via Scheme 1, along with the intermediates and starting compounds, were tested in vitro for their cytotoxicity against a panel of 6 human cancer cell lines. This panel involved human leukemia carcinoma (CCRF-CEM), human ovarian adenocarcinoma (SKOV-3), human breast tumor (MDA-MB-231), human prostate cancer (PC-3), androgen-independent human prostate cancer (DU-145), and human renal carcinoma (iSLK) cell lines. The compounds were tested at a concentration of 25 μM for incubation periods of 24 and 72 h. Standard anticancer drug doxorubicin at a concentration of 5 μM and DMSO were used as controls in all the cell assays. The antiproliferative profile of benzopyran-4-one-isoxazole conjugates is shown in Figure 2 (cf. Supplementary Materials for the data obtained for intermediates and starting materials Figure S28.1–S28.6, page no. 71–76).
Cell viability assays were performed using the MTS protocol. The in vitro cytotoxicity of the conjugates was evaluated using six human cancer cell lines, one human normal kidney cell line, and one mammalian normal kidney cell line, which included human leukemia carcinoma cell lines (CCRF-CEM), human ovarian adenocarcinoma cell lines (SKOV-3), human breast tumor cell lines (MDA-MB-231), human prostate cancer cell lines (PC-3), androgen-independent human prostate cancer cell lines (DU-145), human renal carcinoma (iSLK), human embryonic kidney cell lines (HEK-293), and normal mammalian kidney cell line (LLCPK) to determine the toxicity of the synthesized conjugates. CCRF-CEM cells were seeded at 50,000 cells in 0.1 mL per well in 96-well plates, and in the case of SKOV-3, MDA-MB-231, PC-3, DU-145, HEK-293, and LLCPK cell lines, the cells were seeded at 5000 cells in 0.1 mL per well in 96-well plates. The CCRF-CEM cells were seeded in RPMI-1640 media containing 2mM L-glutamine, 1.5 g/L sodium bicarbonate, supplemented with fetal bovine serum (FBS) 10% media, SKOV-3, MDA-MB-231, and LLCPK cells were seeded in MEME media with Earle’s salts and sodium bicarbonate, without L-glutamine, supplemented with fetal bovine serum (FBS) 10%, PC-3 cells were seeded in DMEM:F-12 containing 1:1 mixture with L-glutamine with HEPES, supplemented with fetal bovine serum (FBS) 10%, and DU-145 and HEK-293 cells were seeded in DMEM containing 4500 mg/L glucose, L-glutamine, and sodium bicarbonate, without sodium pyruvate, supplemented with FBS (10%), 24 h prior to the experiment. The compounds at a final concentration of 25 µM (higher concentration stock solution prepared in DMSO) were added to each well in triplicate and incubated for 24 and 72 h at 37 °C in a humidified atmosphere (95% air and 5% CO2). The cell viability was then determined by measuring the absorbance of the formazan product at 490 nm using a microplate reader using a SpectraMax M2 microplate spectrophotometer, Molecular Devices, San Jose, CA, USA. The percentage of cell survival was calculated as [(OD value of cells treated with the test mixture of compounds) − (OD value of culture medium)]/[(OD value of control cells) − (OD value of culture medium)] × 100%. IC50 values of compounds were calculated using non-linear regression analysis in GraphPad Prism (Boston, MA, USA).

remaining activity at 20 µM (EGFR): 99.8% | remaining activity at 20 µM (p38a/MAPK14): 83.1% | IC50 ([2]; range over CCRF-CEM, MDA-MB-231, PC3, DU-145, read-out: IC50 against all the cancer cell lines (range)): 5.6 to 17.8 µM
Structure (SMILES): Cc1noc(C)c1C(=O)OCc1coc2ccccc2c1=O [Compound 5a, (4-Oxo-4H-1-benzopyran-3-yl)methyl 3,5-dimethylisoxazole-4-carboxylate]
kinase inhibitory activity (in words) [1]: inactive; also recorded: did not show protein tyrosine kinase inhibitory activity | inhibition at 25 µM ([2]; 25 μM, 72 h, range over six cancer cell lines, read-out: percentage of inhibition (range over the cancer cell lines)): 44 to 81%
